# Results: patent publication US5118686A, “Phenylpyrimidones” (Smith Kline & French Laboratories Limited, priority 1989, dated 1992)
# Key:
# [1] = system: spontaneous colonic activity (distal colon segment); test: Inhibition of spontaneous colonic activity - in vitro; set-up: species or system guinea-pig (male albino); conditions: Cavia porcellus; isolated distal colon, Krebs solution, 37° C.; read-out: IC50 (concentration of compound required to reduce spontaneous colonic activity by 50%)
# Text: Male albino guinea-pigs (300-400g) were killed by a blow to the back of the head and exsanguinated. A 2cm long segment of the proximal part of the hypogastric loop of the distal colon was rapidly dissected out and placed in oxygenated (95% O2, 5% CO2) modified warm Krebs solution. The tissue was cleaned out with Krebs and the adjoining mesentery discarded. Cotton was then tied to each end and the colon was attached to a tissue holder in an organ bath containing modified oxygenated Krebs solution at 37° C. The other end of the tissue was tied to an isometric transducer and placed under 1 g tension. Force developed by the muscle was detected by the transducer, and recorded on a multitrace pen recorder. Spontaneous colonic activity, as assessed by the contraction distance over a five minute period, was subjected to computer analysis.
# The tissues were allowed to settle at a resting tension of 1 g for 1 hour, during which time they were washed at 15 minute intervals. Three samples of pre-dose activity were taken and averaged. The tissues were then dosed and two samples of post-dose activity were taken. The lowest value was used to calculate the percentage relaxation, and log dose response curves were constructed. The tissues were washed 10 minutes after dosing and left for 15 minutes to settle prior to the next control period.
# The concentration of compound required to reduce spontaneous colonic activity by 50% is given as the IC50.
# [2] = system: U46619-induced bronchoconstriction; test: Bronchodilatation - In vivo (inhibition of U46619-induced bronchoconstriction in anaesthetised guinea-pigs); set-up: species or system guinea-pig (Dunkin Hartley strain, male); conditions: Cavia porcellus, iv; i.v. bolus; U46619 infused i.v. 2.5 nmol/min; peak inhibition; read-out: BD50 (dose of compound required to reduce the U46619-induced bronchoconstriction by 50%)
# Description: Male guinea-pigs of the Dunkin Hartley strain (500-600g) were anaesthetised with Sagatal (pentobarbital sodium) (60 mg/kg). Airway resistance was measured using a modification of the classical Konzett-Rossler technique (J. pharm. Methods, 13, 309-315, 1985). U46619 (9,11-methanoepoxy-PGH2) was infused i.v. at a rate of 2.5 nmol/min, this produced a steady state of bronchoconstriction (approximately 120% increase from basal airway resistance). The compound under test was administered by i.v. bolus injection, and the subsequent peak inhibition of bronchoconstriction recorded.
IC50 [1] [nM],SMILES,ED50 [2] [µmol/kg]
3700,"CCCOc1ccccc1-c1nc(O)cc(C(=O)NCC)n1 [Example 21, N-Ethyl 6-hydroxy-2-(2-propoxyphenyl)pyrimidine-4-carboxamide]",–
3300,"CCCOc1ccccc1-c1nc(O)cc(CC)n1 [Example 18, 4-Ethyl-6-hydroxy-2-(2-propoxyphenyl)pyrimidine]",9.7

# Further lines, the molecule ahead of its results:
SMILES,IC50 [1] [nM],ED50 [2] [µmol/kg]
"CCCOc1ccccc1-c1nc(O)cc(C(N)=O)n1 [Example 15, 6-Hydroxy-2-(2-propoxyphenyl)pyrimidine-4-carboxamide]",750,–
"CCCOc1ccccc1-c1nc(O)cc(C#N)n1 [Example 16, 4-cyano-6-hydroxy-2-(2-propoxyphenyl)pyrimidine]",–,6.03
"CCCOc1ccccc1-c1nc(NC(=O)NC)cc(=O)[nH]1 [Example 5, 6-N'-methylureido-2-(2-propoxyphenyl)pyrimidin-4[3H]-one]",2400,8.34
